Assay results from patent publication US11149011B2, “Compounds and methods for IDO and TDO modulation, and indications therefor” (Plexxikon Inc., priority 2018, dated 2021).
Like-named read-outs stand apart in the source and are kept apart here.

Assays:
[1] = molecular target: T1, IDO1-expressing HEK293 cell clones (Homo sapiens, UniProt P14902); experiment: Cell based kynurenine assay, IDO1-expressing HEK293 cell clones
T1 construct: expressed in transfected cells; host or cells: HEK293
Procedure: (§1) IDO1-expressing or TDO-expressing HEK293 cell clones are generated upon stable transfection of plasmids expressing human IDO or human TDO under the control of CMV promoter. Cells are selected in DMEM media supplemented with 10% fetal bovine serum and 1 mg/ml G418 at 37° C. in a humidified incubator supplied with 5% CO2. The assays are performed as follows.
(§2) Cells were seeded in a 96 well plate in 50 μL of culture media at a density of 2.5×10^4 per well. Serial dilutions of compounds (in total volume of 50 μL culture media) are added into cells. 4 wells containing 0.2% DMSO treated cells serve as high controls and 4 wells containing media only with 0.2% DMSO serve as low controls. After 24 hours of incubation, the supernatant was transferred to a 384 well reaction plate and the kynurenine level determined. The percentage inhibition at individual concentrations relative to high and low controls is calculated. The data is analyzed by using nonlinear regression to generate IC50 values.

IDO1 = molecular target: T2, IDO1 (Homo sapiens, UniProt P14902); experiment: IDO enzymatic assay; format: biochemical
T2 construct: His tag (N); made in house; host or cells: E. coli
T2 sequence (P14902 whole entry): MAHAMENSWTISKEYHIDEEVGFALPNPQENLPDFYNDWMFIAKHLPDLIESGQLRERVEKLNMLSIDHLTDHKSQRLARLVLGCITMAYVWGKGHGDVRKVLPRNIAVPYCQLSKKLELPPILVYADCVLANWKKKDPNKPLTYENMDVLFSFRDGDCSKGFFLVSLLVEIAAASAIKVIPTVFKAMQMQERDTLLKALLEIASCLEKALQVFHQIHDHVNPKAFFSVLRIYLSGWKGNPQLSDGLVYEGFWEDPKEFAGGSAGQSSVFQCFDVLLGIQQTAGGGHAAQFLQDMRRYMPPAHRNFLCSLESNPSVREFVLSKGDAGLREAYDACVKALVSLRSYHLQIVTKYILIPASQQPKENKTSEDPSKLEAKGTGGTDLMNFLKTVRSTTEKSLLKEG
Procedure: (§3) Human IDO or TDO with N-terminal His tag is purified in E. coli. The IDO enzymatic assay is performed using 6 nM IDO and 10 μM L-Trp in the presence of 10 mM ascorbic acid, 5 μM methylene blue, 100 nM catalase and 0.01% Tween 20 in 50 mM sodium phosphate buffer (pH 6.5). 19 μL of above reaction mixture is added to wells of 384 well reaction plate containing 1 μL of various concentrations of test compound or DMSO vehicle and incubated for 20 minutes at room temperature. The TDO enzymatic reaction assay is performed using 1 nM TDO and 350 μM L-Trp in the presence of 10 mM ascorbic acid, 0.4 μM methylene blue, 100 nM catalase and 0.01% Tween 20 in 50 mM sodium phosphate buffer (pH 6.5). 19 μL of above reaction mixture is added to wells of 384 well reaction plate containing 1 μL of various concentrations of test compound or DMSO vehicle and incubated for 70 minutes at room temperature. 16 wells containing all the components of reaction mixture and 5% DMSO serve as high control. 16 well containing all the components except enzyme of reaction mixture and 5% DMSO serves as low control. Both IDO and TDO enzymatic reactions are stopped by addition of 4 μL of 30% TCA and incubated 30 minutes at 50° C. to hydrolyze N-formylkynurenine produced by IDO or TDO to kynurenine. Upon measuring the kynurenine level, the percentage inhibition is calculated at individual concentrations relative to high and low controls. The data is analyzed by using nonlinear regression to generate IC50 values.

[2] = molecular target: T3, TDO-expressing HEK293 cell clones (Homo sapiens, UniProt P48775); experiment: Cell based kynurenine assay, TDO-expressing HEK293 cell clones; details: HEK293 cells, 24 hours of incubation, geometric mean; read-out: HEK293 TDO Kynurenine GMean IC50 (μM) (Cellular Assay)
T3 construct: expressed in transfected cells; host or cells: HEK293
T3 sequence (P48775 whole entry): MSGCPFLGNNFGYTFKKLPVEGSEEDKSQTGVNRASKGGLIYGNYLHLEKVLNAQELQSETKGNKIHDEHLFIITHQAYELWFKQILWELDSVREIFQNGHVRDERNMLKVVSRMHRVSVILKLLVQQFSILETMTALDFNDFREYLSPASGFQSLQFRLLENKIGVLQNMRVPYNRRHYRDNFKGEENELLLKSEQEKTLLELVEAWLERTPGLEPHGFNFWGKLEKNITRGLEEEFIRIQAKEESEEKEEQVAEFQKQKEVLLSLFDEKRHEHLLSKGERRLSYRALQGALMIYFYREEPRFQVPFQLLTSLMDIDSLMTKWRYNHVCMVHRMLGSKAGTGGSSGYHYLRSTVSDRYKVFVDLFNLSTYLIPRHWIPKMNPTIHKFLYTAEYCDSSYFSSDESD
Procedure: as §1, §2

TDO = molecular target: T4, TDO (Homo sapiens, UniProt P48775); experiment: TDO enzymatic assay; details: geometric mean; read-out: TDO GMean: IC50 (μM) (Biochemical Assay)
T4 construct: His tag (N); made in house; host or cells: E. coli
T4 sequence (P48775 whole entry): as above
Procedure: as §3

[3] = comparative examples 4,6 vs 5,7 indazole, cellular potency, read-out: hIDO1
[4] = geometric mean, read-out: IDO1 GMean: IC50 (μM) (Biochemical Assay)
[5] = HEK293 cells, 24 hours of incubation, geometric mean, read-out: HEK293 IDO1 Kynurenine GMean IC50 (μM) (Cellular Assay)

T1 sequence (P14902 whole entry): as the sequence (P14902 whole entry) above

| SMILES | IC50 [1, 3] | IC50 (IDO1; comparative examples 4,6 vs 5,7 indazole, biochemical potency, read-out: IDO1) | IC50 (IDO1; [4]) | IC50 [2] | IC50 [1, 5] | IC50 (TDO) |
| --- | --- | --- | --- | --- | --- | --- |
| OC1(c2cc(Cl)cc3cn[nH]c23)CC2(CCC2)C1 | ≥ 10 µM | – | – | – | – | – |
| OC1(c2cc(Cl)cc3[nH]ncc23)CC2(CCOCC2)C1 | ≥ 10 µM | 200 µM | – | – | – | – |
| OC1(c2cc(Cl)cc3cn[nH]c23)CCC(F)(F)CC1 [Compound P-0008, 1-(5-chloro-1H-indazol-7-yl)-4,4-difluorocyclohexan-1-ol] | – | – | 0.0001 to 10 µM | 0.0001 to 10 µM | 0.0001 to 10 µM | 0.0001 to 10 µM |
| OC1(c2cc(Cl)cc3cn[nH]c23)CC2(CC2)C1 [Compound P-0011, 5-(5-chloro-1H-indazol-7-yl)spiro[2.3]hexan-5-ol] | – | – | 0.0001 to 10 µM | 0.0001 to 10 µM | – | 0.0001 to 10 µM |
| CS(=O)(=O)N1CCC(O)(c2cc(Cl)cc3cn[nH]c23)CC1 [Compound P-0017, 4-(5-chloro-1H-indazol-7-yl)-1-(methylsulfonyl)piperidin-4-ol] | – | – | 0.0001 to 10 µM | 0.0001 to 10 µM | – | 0.0001 to 10 µM |
| CC(C)(C1CCN(C(=O)NCc2ccncc2)CC1)[C@H](O)c1cc(Cl)cc2cn[nH]c12 [Compound P-0019, (S)-4-(1-(5-chloro-1H-indazol-7-yl)-1-hydroxy-2-methylpropan-2-yl)-N-(pyridin-4-ylmethyl)piperidine-1-carboxamide] | – | – | 0.0001 to 10 µM | 0.0001 to 10 µM | 0.0001 to 10 µM | 0.0001 to 10 µM |
| C[C@H](NC(=O)N1CCC(C(C)(C)[C@H](O)c2cc(Cl)cc3cn[nH]c23)CC1)c1ccccn1 [Compound P-0021, 4-((S)-1-(5-chloro-1H-indazol-7-yl)-1-hydroxy-2-methylpropan-2-yl)-N-((S)-1-(pyridin-2-yl)ethyl)piperidine-1-carboxamide] | – | – | 0.0001 to 10 µM | 0.0001 to 10 µM | 0.0001 to 10 µM | 0.0001 to 10 µM |
| CC(C)(C1CCN(C(=O)N2CCS(=O)(=O)CC2)CC1)[C@H](O)c1cc(Cl)cc2cn[nH]c12 [Compound P-0022, (S)-(4-(1-(5-chloro-1H-indazol-7-yl)-1-hydroxy-2-methylpropan-2-yl)piperidin-1-yl)(1,1-dioxidothiomorpholino)methanone] | – | – | 0.0001 to 10 µM | 0.0001 to 10 µM | 0.0001 to 10 µM | 0.0001 to 10 µM |
| CC(C)(C1CCN(C(=O)N[C@H]2CCC[C@@H]2O)CC1)[C@H](O)c1cc(Cl)cc2cn[nH]c12 [Compound P-0024, 4-((S)-1-(5-chloro-1H-indazol-7-yl)-1-hydroxy-2-methylpropan-2-yl)-N-((1S,2S)-2-hydroxycyclopentyl)piperidine-1-carboxamide] | – | – | 0.0001 to 10 µM | 0.0001 to 10 µM | 0.0001 to 10 µM | 0.0001 to 10 µM |
| CC(C)(C1CCN(C(=O)N[C@H]2CCC[C@H]2O)CC1)[C@H](O)c1cc(Cl)cc2cn[nH]c12 [Compound P-0025, 4-((S)-1-(5-chloro-1H-indazol-7-yl)-1-hydroxy-2-methylpropan-2-yl)-N-((1S,2R)-2-hydroxycyclopentyl)piperidine-1-carboxamide] | – | – | 0.0001 to 10 µM | 0.0001 to 10 µM | 0.0001 to 10 µM | 0.0001 to 10 µM |
| CC(C)(C1CCN(C(=O)NCc2ncccn2)CC1)[C@H](O)c1cc(Cl)cc2cn[nH]c12 [Compound P-0027, (S)-4-(1-(5-chloro-1H-indazol-7-yl)-1-hydroxy-2-methylpropan-2-yl)-N-(pyrimidin-2-ylmethyl)piperidine-1-carboxamide] | – | – | 0.0001 to 10 µM | 0.0001 to 10 µM | 0.0001 to 10 µM | 0.0001 to 10 µM |
| CC(C)(C1CCN(C(=O)[C@@H]2CCCN2)CC1)[C@H](O)c1cc(Cl)cc2cn[nH]c12 [Compound P-0138, (4-((S)-1-(5-chloro-1H-indazol-7-yl)-1-hydroxy-2-methylpropan-2-yl)piperidin-1-yl)((S)-1λ^2-pyrrolidin-2-yl)methanone] | – | – | – | 0.0001 to 10 µM | 0.0001 to 10 µM | – |
| CC(C)(C1CCN(C(=O)[C@H]2CCNC2)CC1)[C@H](O)c1cc(Cl)cc2cn[nH]c12 [Compound P-0141, (4-((S)-1-(5-chloro-1H-indazol-7-yl)-1-hydroxy-2-methylpropan-2-yl)piperidin-1-yl)((S)-1λ^2-pyrrolidin-3-yl)methanone] | – | – | – | > 10 µM | 0.0001 to 10 µM | – |

The next lines start with the values.

| IC50 [1, 3] | IC50 (IDO1; comparative examples 4,6 vs 5,7 indazole, biochemical potency, read-out: IDO1) | IC50 (IDO1; [4]) | IC50 [2] | IC50 [1, 5] | IC50 (TDO) | SMILES |
| --- | --- | --- | --- | --- | --- | --- |
| ≥ 10 µM | – | – | – | – | – | OC1(c2cc(Cl)cc3[nH]ncc23)CC2(CCC2)C1 |
| – | – | 0.0001 to 10 µM | 0.0001 to 10 µM | – | 0.0001 to 10 µM | CC(C)(C)OC(=O)N1CCC2(CC1)CC(O)(c1cc(Cl)cc3cn[nH]c13)C2 [Compound P-0013, tert-butyl 2-(5-chloro-1H-indazol-7-yl)-2-hydroxy-7-azaspiro[3.5]nonane-7-carboxylate] |
| – | – | 0.0001 to 10 µM | – | – | – | OC1(c2cc(Cl)cc3cn[nH]c23)CC2(CCNCC2)C1 [Compound P-0014, 2-(5-chloro-1H-indazol-7-yl)-7-azaspiro[3.5]nonan-2-ol] |
| – | – | 0.0001 to 10 µM | 0.0001 to 10 µM | – | 0.0001 to 10 µM | CS(=O)(=O)N1CC(O)(c2cc(Cl)cc3cn[nH]c23)C1 [Compound P-0018, 3-(5-chloro-1H-indazol-7-yl)-1-(methylsulfonyl)azetidin-3-ol] |
| – | – | 0.0001 to 10 µM | 0.0001 to 10 µM | 0.0001 to 10 µM | 0.0001 to 10 µM | CC(C)(C1CCN(C(=O)NCCN2CCOCC2)CC1)[C@H](O)c1cc(Cl)cc2cn[nH]c12 [Compound P-0020, (S)-4-(1-(5-chloro-1H-indazol-7-yl)-1-hydroxy-2-methylpropan-2-yl)-N-(2-morpholinoethyl)piperidine-1-carboxamide] |
| – | – | 0.0001 to 10 µM | 0.0001 to 10 µM | 0.0001 to 10 µM | 0.0001 to 10 µM | CC(C)(C1CCN(C(=O)NCC2COC2)CC1)[C@H](O)c1cc(Cl)cc2cn[nH]c12 [Compound P-0023, (S)-4-(1-(5-chloro-1H-indazol-7-yl)-1-hydroxy-2-methylpropan-2-yl)-N-(oxetan-3-ylmethyl)piperidine-1-carboxamide] |
| – | – | 0.0001 to 10 µM | 0.0001 to 10 µM | 0.0001 to 10 µM | 0.0001 to 10 µM | CC(C)(C1CCN(C(=O)NCc2cncnc2)CC1)[C@H](O)c1cc(Cl)cc2cn[nH]c12 [Compound P-0026, (S)-4-(1-(5-chloro-1H-indazol-7-yl)-1-hydroxy-2-methylpropan-2-yl)-N-(pyrimidin-5-ylmethyl)piperidine-1-carboxamide] |
| – | – | – | > 10 µM | – | – | CC(=O)N1CCC(C(F)(F)C(O)c2c(F)c(Cl)cc3cn[nH]c23)CC1 (stereo not drawn) [Compound P-0056, 1-(4-(2-(5-chloro-6-fluoro-1H-indazol-7-yl)-1,1-difluoro-2-hydroxyethyl)piperidin-1-yl)ethan-1-one] |
| – | – | 0.0001 to 10 µM | 0.0001 to 10 µM | – | 0.0001 to 10 µM | O=S1(=O)CC2(CC(O)(c3cc(Cl)cc4cn[nH]c34)C2)C1 [Compound P-0057, 6-(5-chloro-1H-indazol-7-yl)-6-hydroxy-2-thiaspiro[3.3]heptane 2,2-dioxide] |
| – | – | – | 0.0001 to 10 µM | 0.0001 to 10 µM | – | CC(C)(C1CCN(C(=O)[C@H]2CCCN2)CC1)[C@H](O)c1cc(Cl)cc2cn[nH]c12 [Compound P-0139, (4-((S)-1-(5-chloro-1H-indazol-7-yl)-1-hydroxy-2-methylpropan-2-yl)piperidin-1-yl)((R)-1λ^2-pyrrolidin-2-yl)methanone] |
| – | – | – | > 10 µM | 0.0001 to 10 µM | – | CC(C)(C1CCN(C(=O)[C@@H]2CCNC2)CC1)[C@H](O)c1cc(Cl)cc2cn[nH]c12 [Compound P-0140, (4-((S)-1-(5-chloro-1H-indazol-7-yl)-1-hydroxy-2-methylpropan-2-yl)piperidin-1-yl)((R)-1λ^2-pyrrolidin-3-yl)methanone] |
